Assay [1] relates to ERK1/2 phosphorylation of p90RSK in HCT116 cells. Description: Detection of total and phospho-RSK by MSD ELISA (HCT116). The conditions noted are these: Homo sapiens, HCT-116, read-out: ERK1/ERK2 PRSK HCT116 EC50. The assay is classed as cell-based. The gist of the method:
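HCT116 cells treated with compound in RPMI/10% FBS for 2 h at 37° C, then lysed. Phospho-RSK (Ser380) and total RSK in lysates measured by MSD sandwich electrochemiluminescence ELISA as a readout of ERK1/2 activity.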
(In general: ELISA stands for enzyme-linked immunosorbent assay.)

Assay [2] concerns the target T1, MEK1 activated ERK1 (Homo sapiens, UniProt P27361).
T1 construct: purchased Millipore (Billerica, Mass.) 14-439-K
The assay can be described thus: Omnia continuous-read kinase assay for potency against MEK1 activated ERK1. The assay is classed as biochemical. The following applies: ATP at KM, WT. The gist of the method:
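Apparent IC50 came from initial reaction slopes (RFU vs time) plotted against log inhibitor with a variable-slope fit. Reactions were started with ERK1 (4 nM final) added to 50 μM ATP, roughly at its appKM, and 10 μM Sox-conjugated ST17 peptide in 20 mM Tris pH 7.5, 5 mM MgCl2. Fluorescence was monitored every 71 seconds.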

pEC50, pIC50: −log10 of the molar value.

Usually pIC50 stands for the negative decadic logarithm of the IC50, by convention in mol/L.

T1 sequence (P27361 whole entry): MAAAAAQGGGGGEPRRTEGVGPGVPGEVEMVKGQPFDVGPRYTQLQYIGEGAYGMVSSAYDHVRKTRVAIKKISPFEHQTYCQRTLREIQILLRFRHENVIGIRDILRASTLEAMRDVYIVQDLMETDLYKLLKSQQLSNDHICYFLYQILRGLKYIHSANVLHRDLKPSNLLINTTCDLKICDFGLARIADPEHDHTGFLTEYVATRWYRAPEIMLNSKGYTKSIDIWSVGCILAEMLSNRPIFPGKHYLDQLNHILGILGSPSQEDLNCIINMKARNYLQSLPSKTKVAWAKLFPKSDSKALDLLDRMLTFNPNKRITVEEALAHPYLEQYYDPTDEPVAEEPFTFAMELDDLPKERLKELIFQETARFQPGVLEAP

Consider `C=CC(=O)Nc1cc(CN2CCN(C(C)=O)C[C@@H]2C)ccc1Nc1nc(Nc2cc(OC)ncc2C)ncc1C(F)(F)F` [Compound I-421, (S)—N-(5-((4-acetyl-2-methylpiperazin-1-yl)methyl)-2-((2-((2-methoxy-5-methylpyridin-4-yl)amino)-5-(trifluoromethyl)pyrimidin-4-yl)amino)phenyl)acrylamide], for which the pEC50 in assay [1] was 6.30 to 7.00. The pIC50 in assay [2] is > 7.00.
With `C=CC(=O)Nc1cc(O[C@H](C)C(=O)N2CCN(S(C)(=O)=O)CC2)ccc1Nc1nc(Nc2cc(OC)ncc2C)ncc1C(F)(F)F` [Compound I-410, (R)—N-(2-((2-((2-methoxy-5-methylpyridin-4-yl)amino)-5-(trifluoromethyl)pyrimidin-4-yl)amino)-5-((1-(4-(methylsulfonyl)piperazin-1-yl)-1-oxopropan-2-yl)oxy)phenyl)acrylamide], in assay [1], the pEC50 was 6.30 to 7.00. The negative-log IC50 (pIC50) in assay [2] is > 7.00.
In the same order, the values of `C=CC(=O)Nc1cc(O[C@@H](C)C(N)=O)ccc1Nc1nc(Nc2cc(OC)ncc2C)ncc1C(F)(F)F` [Compound I-412, (S)—N-(5-((1-amino-1-oxopropan-2-yl)oxy)-2-((2-((2-methoxy-5-methylpyridin-4-yl)amino)-5-(trifluoromethyl)pyrimidin-4-yl)amino)phenyl)acrylamide] are 6.30 to 7.00 and > 7.00.
As to `C=CC(=O)Nc1cc(O[C@H](C)C(=O)N2CCN(C(C)=O)CC2)ccc1Nc1nc(Nc2cc(OC)ncc2C)ncc1C(F)(F)F` [Compound I-409, (R)—N-(5-((1-(4-acetylpiperazin-1-yl)-1-oxopropan-2-yl)oxy)-2-((2-((2-methoxy-5-methylpyridin-4-yl)amino)-5-(trifluoromethyl)pyrimidin-4-yl)amino)phenyl)acrylamide], the pEC50 in assay [1] was 6.00 to 6.30. Moreover, the pIC50 in assay [2] was > 7.00.
Taken in the same sequence, the figures for `C=CC(=O)Nc1cc(OCCN2CCN(C(C)=O)CC2)ccc1Nc1nc(Nc2cc(OC)ncc2C)ncc1C(F)(F)F` [Compound I-416, N-(5-(2-(4-acetylpiperazin-1-yl)ethoxy)-2-((2-((2-methoxy-5-methylpyridin-4-yl)amino)-5-(trifluoromethyl)pyrimidin-4-yl)amino)phenyl)acrylamide] were 6.30 to 7.00 and > 7.00.
On to `C=CC(=O)Nc1cc(O[C@@H](C)C(=O)N2CCN(S(C)(=O)=O)CC2)ccc1Nc1nc(Nc2cc(OC)ncc2C)ncc1C(F)(F)F` [Compound I-426, (S)—N-(2-((2-((2-methoxy-5-methylpyridin-4-yl)amino)-5-(trifluoromethyl)pyrimidin-4-yl)amino)-5-((1-(4-(methylsulfonyl)piperazin-1-yl)-1-oxopropan-2-yl)oxy)phenyl)acrylamide], for which the pEC50 in assay [1] is 6.30 to 7.00. Besides, in assay [2], the pIC50 was 6.00 to 6.30.
In the same order, the values of `C=CC(=O)Nc1cc(C)ccc1Nc1nc(NC2COC2)ncc1C(F)(F)F` [Compound I-420, N-(5-methyl-2-((2-(oxetan-3-ylamino)-5-(trifluoromethyl)pyrimidin-4-yl)amino)phenyl)acrylamide] are < 6.00 and < 6.00.
In the same order, the values of `C=CC(=O)Nc1cc(O[C@@H](C)C(=O)N2CCN(C(C)=O)CC2)ccc1Nc1nc(Nc2cc(OC)ncc2C)ncc1C(F)(F)F` [Compound I-425, (S)—N-(5-((1-(4-acetylpiperazin-1-yl)-1-oxopropan-2-yl)oxy)-2-((2-((2-methoxy-5-methylpyridin-4-yl)amino)-5-(trifluoromethyl)pyrimidin-4-yl)amino)phenyl)acrylamide] are 6.00 to 6.30 and 6.30 to 7.00.
Taken in the same sequence, the figures for `C=CC(=O)Nc1c(Nc2nc(Nc3cc(OC)ncc3C)ncc2OC)cccc1OCc1nccs1` [Compound I-411, N-(2-((5-methoxy-2-((2-methoxy-5-methylpyridin-4-yl)amino)pyrimidin-4-yl)amino)-6-(thiazol-2-ylmethoxy)phenyl)acrylamide] were < 6.00 and < 6.00.
`C=CC(=O)Nc1cc(C)ccc1Nc1nc(Nc2cc(C(N)=O)nn2C)ncc1C(F)(F)F` [Compound I-423, 5-((4-((2-acrylamido-4-methylphenyl)amino)-5-(trifluoromethyl)pyrimidin-2-yl)amino)-1-methyl-1H-pyrazole-3-carboxamide]: in assay [1], the pEC50 was < 6.00. The pIC50 in assay [2] is < 6.00.
Turning to `C=CC(=O)Nc1cc(O[C@H](C)C(N)=O)ccc1Nc1nc(Nc2cc(OC)ncc2C)ncc1C(F)(F)F` [Compound I-413, (R)—N-(5-((1-amino-1-oxopropan-2-yl)oxy)-2-((2-((2-methoxy-5-methylpyridin-4-yl)amino)-5-(trifluoromethyl)pyrimidin-4-yl)amino)phenyl)acrylamide], in assay [1], the pEC50 was > 7.00. Besides, in assay [2], the pIC50 was > 7.00.
Consider `C=CC(=O)Nc1cc(C)ccc1Nc1nc(NCC2COC2)ncc1C(F)(F)F` [Compound I-417, N-(5-methyl-2-((2-((oxetan-3-ylmethyl)amino)-5-(trifluoromethyl)pyrimidin-4-yl)amino)phenyl)acrylamide], for which, in assay [1], the pEC50 is < 6.00. In addition, the negative logarithm of the IC50 (pIC50) in assay [2] was < 6.00.
`C=CC(=O)Nc1cc(CN2CCN(C(C)=O)C[C@H]2C)ccc1Nc1nc(Nc2cc(OC)ncc2C)ncc1C(F)(F)F` [Compound I-422, (R)—N-(5-((4-acetyl-2-methylpiperazin-1-yl)methyl)-2-((2-((2-methoxy-5-methylpyridin-4-yl)amino)-5-(trifluoromethyl)pyrimidin-4-yl)amino)phenyl)acrylamide]: in assay [1], the pEC50 was > 7.00. Also, the pIC50 in assay [2] was > 7.00.
Take `C=CC(=O)Nc1cc(C)ccc1Nc1nc(Nc2cc(OC)ncc2CC)ncc1C(F)(F)F` [Compound I-408, N-(2-((2-((5-ethyl-2-methoxypyridin-4-yl)amino)-5-(trifluoromethyl)pyrimidin-4-yl)amino)-5-methylphenyl)acrylamide]: the pEC50 in assay [1] is 6.00 to 6.30. In assay [2], the negative logarithm of the IC50 (pIC50) was 6.30 to 7.00.
On to `C=CC(=O)Nc1cc(CCc2cnn(C)c2)ccc1Nc1nc(Nc2cc(OC)ncc2C)ncc1C(F)(F)F` [Compound I-427, N-(2-((2-((2-methoxy-5-methylpyridin-4-yl)amino)-5-(trifluoromethyl)pyrimidin-4-yl)amino)-5-(2-(1-methyl-1H-pyrazol-4-yl)ethyl)phenyl)acrylamide], for which the pEC50 in assay [1] is 6.00 to 6.30. In assay [2], the pIC50 was 6.30 to 7.00.
Consider `C=CC(=O)Nc1cc(OCC(=O)N2CCN(C(C)=O)CC2)ccc1Nc1nc(Nc2cc(OC)ncc2OC)ncc1C(F)(F)F` [Compound I-415, N-(5-(2-(4-acetylpiperazin-1-yl)-2-oxoethoxy)-2-((2-((2,5-dimethoxypyridin-4-yl)amino)-5-(trifluoromethyl)pyrimidin-4-yl)amino)phenyl)acrylamide], for which the pEC50 in assay [1] was 6.30 to 7.00. The pIC50 in assay [2] was > 7.00.
In the same order, the values of `C=CC(=O)Nc1cc(C)ccc1Nc1nc(Nc2cc(C(=O)NC)nn2C)ncc1C(F)(F)F` [Compound I-424, 5-((4-((2-acrylamido-4-methylphenyl)amino)-5-(trifluoromethyl)pyrimidin-2-yl)amino)-N,1-dimethyl-1H-pyrazole-3-carboxamide] are 6.30 to 7.00 and < 6.00.
Taken in the same sequence, the figures for `C=CC(=O)Nc1cc(CN2CCN(C(=O)c3ccccn3)CC2)ccc1Nc1nc(Nc2cc(OC)ncc2C)ncc1C(F)(F)F` [Compound I-388, N-(2-((2-((2-methoxy-5-methylpyridin-4-yl)amino)-5-(trifluoromethyl)pyrimidin-4-yl)amino)-5-((4-picolinoylpiperazin-1-yl)methyl)phenyl)acrylamide] were > 7.00 and 6.30 to 7.00.
With `C=CC(=O)Nc1cc(C)ccc1Nc1nc(Nc2cc(C(=O)OC)nn2C)ncc1C(F)(F)F` [Compound I-418, Methyl 5-((4-((2-acrylamido-4-methylphenyl)amino)-5-(trifluoromethyl)pyrimidin-2-yl)amino)-1-methyl-1H-pyrazole-3-carboxylate], the pEC50 in assay [1] is 6.30 to 7.00. Also, in assay [2], the pIC50 was 6.30 to 7.00.
Turning to `C=CC(=O)Nc1cc(CN2CCN(C(=O)c3ccccn3)CC2)ccc1Nc1nc(Nc2nc(OC)ncc2C)ncc1C(F)(F)F` [Compound I-391, N-(2-((2-((2-methoxy-5-methylpyrimidin-4-yl)amino)-5-(trifluoromethyl)pyrimidin-4-yl)amino)-5-((4-picolinoylpiperazin-1-yl)methyl)phenyl)acrylamide], the pEC50 in assay [1] was 6.30 to 7.00. Further, in assay [2], the pIC50 is 6.30 to 7.00.
`C=CC(=O)Nc1cc(C)ccc1Nc1nc(Nc2cc(C(F)(F)F)nn2C)ncc1C(F)(F)F` [Compound I-419, N-(5-methyl-2-((2-((1-methyl-3-(trifluoromethyl)-1H-pyrazol-5-yl)amino)-5-(trifluoromethyl)pyrimidin-4-yl)amino)phenyl)acrylamide]: the pEC50 in assay [1] was < 6.00. Further, in assay [2], the pIC50 was < 6.00.
Consider `C=CC(=O)Nc1cc(OC(F)(F)F)ccc1Nc1nc(Nc2cc(OC)ncc2C)ncc1C(F)(F)F` [Compound I-407, N-(2-((2-((2-methoxy-5-methylpyridin-4-yl)amino)-5-(trifluoromethyl)pyrimidin-4-yl)amino)-5-(trifluoromethoxy)phenyl)acrylamide], for which the pEC50 in assay [1] is 6.30 to 7.00. The pIC50 in assay [2] was 6.30 to 7.00.

(Values after patent publication US9561228B2 (Celgene Avilomics Research, Inc., priority 2013, dated 2017).)
